Test systems include CAKI-1; Hs-578T; COLO 205; TK-10; SK-MEL-28; UACC-257; NCI-H226; HCT-116; OVCAR-5; HCT-15; SK-OV-3; SF-295; SK-MEL-5; A549; MDA-MB-435; MOLT-4; U-251; 786-0; T47D; A498.
Experiment in all cases: growth of human tumour cells (NCI), 48 h

The results in this text go back to ChEMBL document CHEMBL1201862, “PubChem BioAssay data set” (2004).

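Five concentrations, 48 hours, 96-well plates. Here, GI50 denotes the concentration required for 50% inhibition of growth.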 Active and inactive are the calls of the source. Rule as the data show it: active = GI50 up to about 1.1 µM and inactive = higher.

`C=C1C(=O)OC2CC(C)C(C(O)CC(C)O)=CCC12` (stereo not given): the GI50 is 4.3 µM (inactive) with CAKI-1; 20.9 µM (inactive) with Hs-578T; 10.5 µM (inactive) in the experiment with COLO 205; 9.14 µM (inactive) with TK-10; 9.62 µM (inactive) in the experiment on SK-MEL-28; 12.9 µM (inactive) with UACC-257. In addition, the GI50 in the experiment with NCI-H226 was 26.1 µM (inactive); in the experiment with HCT-116, 8.71 µM (inactive); with OVCAR-5 it was 15 µM (inactive); in the experiment on HCT-15, 14.2 µM; with SK-OV-3, 36.7 µM (inactive); with SF-295, 41.2 µM (inactive). For the same compound, the GI50 in the experiment with SK-MEL-5 is 19.4 µM (inactive); with A549 it was 25.9 µM (inactive); in the experiment on MDA-MB-435, 19.6 µM (inactive); in the experiment on MOLT-4 it was 14 µM (inactive); in the experiment with U-251, 16.3 µM (inactive); with 786-0, 13.7 µM (inactive). Besides, the GI50 is 7.08 µM (inactive) in the experiment with T47D and 16.9 µM (inactive) in the experiment with A498.

For the compound `CCCCCCCCC[n+]1cccc(C2C(C(=O)OCC)=C(C)NC(C)=C2C(=O)OCC)c1`, the GI50 was 13.6 µM (inactive) in the experiment on CAKI-1; 3.1 µM (inactive) with Hs-578T; 2.56 µM (inactive) with COLO 205; 10.7 µM (inactive) with TK-10; 2.44 µM (inactive) in the experiment with SK-MEL-28; 2.38 µM (inactive) with UACC-257. The GI50 is 11.9 µM (inactive) in the experiment with NCI-H226; 4 µM (inactive) in the experiment with HCT-116; 10.7 µM (inactive) in the experiment on OVCAR-5; 16 µM with HCT-15; 11.3 µM (inactive) in the experiment on SK-OV-3; 17 µM (inactive) in the experiment on SF-295. The GI50 in the experiment with SK-MEL-5 was 1.88 µM (inactive); in the experiment with A549, 18.2 µM (inactive); in the experiment with MDA-MB-435 it was 2.08 µM (inactive); in the experiment on MOLT-4 it was 3.98 µM (inactive); in the experiment with U-251 it was 3.21 µM (inactive); with 786-0, 7.08 µM (inactive). The GI50 in the experiment with T47D was 5.04 µM (inactive); in the experiment on A498, 18.2 µM (inactive).

Take `C=C1C(=O)C23CC1C[C@H](OC(C)=O)[C@H]2C1(C)C(OC(C)=O)C[C@H](O)C(C)(C)[C@H]1C(=O)[C@@H]3OC(C)=O` (stereo not given in full): the GI50 with CAKI-1 is 2.86 µM (inactive); in the experiment with Hs-578T, 3.98 µM (inactive); in the experiment on COLO 205, 2.17 µM (inactive); in the experiment with TK-10, 2.28 µM (inactive); in the experiment with SK-MEL-28, 4.59 µM (inactive); with UACC-257, 2.43 µM (inactive). Besides, the GI50 in the experiment with NCI-H226 is 23.2 µM (inactive); with HCT-116, 2.22 µM (inactive); in the experiment with OVCAR-5 it was 9.51 µM (inactive); in the experiment on HCT-15, 4.37 µM; with SK-OV-3, 18.1 µM (inactive); in the experiment with SF-295 it was 17.9 µM (inactive). Further, the GI50 with SK-MEL-5 was 13.9 µM (inactive); with A549, 17.9 µM (inactive); in the experiment with MDA-MB-435, 3.09 µM (inactive); in the experiment on MOLT-4, 1.21 µM (inactive); with U-251 it was 15 µM (inactive); in the experiment on 786-0, 3.28 µM (inactive). Besides, the GI50 in the experiment with T47D is 2.72 µM (inactive); with A498, 16.2 µM (inactive).
